Measurements from PubChem BioAssay (NCI).
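96-well plates; 48 h exposure; 5 concentrations. Endpoints by linear interpolation between flanking doses. Not reached: highest tested concentration assigned. GI50: concentration for 50% inhibition of growth. TGI: total growth inhibition.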

Experiments:
Assay in all cases: NCI anticancer screen, dose series, 48 h
OVCAR-5 ovarian = system: OVCAR-5 ovarian
CAKI-1 renal = system: CAKI-1 renal
MOLT-4 leukemia = system: MOLT-4 leukemia
NCI-H460 lung = system: NCI-H460 lung
SK-MEL-2 melanoma = system: SK-MEL-2 melanoma
KM12 colon = system: KM12 colon
SF-268 CNS = system: SF-268 CNS
SK-OV-3 ovarian = system: SK-OV-3 ovarian
NCI-H522 lung = system: NCI-H522 lung
IGROV1 ovarian = system: IGROV1 ovarian

SMILES	TGI (OVCAR-5 ovarian)	TGI (CAKI-1 renal)	TGI (MOLT-4 leukemia)	TGI (NCI-H460 lung)	TGI (SK-MEL-2 melanoma)	TGI (KM12 colon)	TGI (SF-268 CNS)	TGI (SK-OV-3 ovarian)	TGI (NCI-H522 lung)	TGI (IGROV1 ovarian)	GI50 (OVCAR-5 ovarian)	GI50 (MOLT-4 leukemia)	GI50 (NCI-H460 lung)	GI50 (SK-MEL-2 melanoma)	GI50 (SF-268 CNS)	GI50 (SK-OV-3 ovarian)	GI50 (IGROV1 ovarian)	GI50 (NCI-H522 lung)	GI50 (CAKI-1 renal)	GI50 (KM12 colon)
COc1ccc2nc3ccccc3c(NCCCCCCN(C)CCCl)c2c1	3.25 µM	3.19 µM	0.165 µM	1.46 µM	1.81 µM	1.44 µM	2.48 µM	2.04 µM	1.58 µM											
CCN(CC)C(=O)COc1ccc(Br)cc1Br	> 100 µM	> 100 µM	> 100 µM	> 100 µM	> 100 µM	> 100 µM	> 100 µM	> 100 µM	> 100 µM											
O=C(Nc1c(O)[nH]c(=S)[nH]c1=O)c1ccc2ccccc2n1		> 100 µM	> 100 µM	> 100 µM			> 100 µM	> 100 µM	> 100 µM	> 100 µM										
Cc1ccc(Cl)c(NC(=O)C(=O)C(C(=O)c2ccncc2)C2OC(=O)c3ccccc32)c1 (centres undefined)		> 100 µM		> 100 µM			> 100 µM	> 100 µM	> 100 µM	> 100 µM										
Cc1cc(Cl)ccc1N=C1NC(=O)C(CC(=O)Nc2ccc(Cl)cc2Cl)S1 (centres undefined)	> 100 µM	> 100 µM	> 100 µM	> 100 µM	> 100 µM	> 100 µM	> 100 µM	> 100 µM		> 100 µM										
COc1ccc(-c2ccc(C3CC(c4ccc(Cl)cc4)=NN3)o2)c([N+](=O)[O-])c1 (centres undefined)	> 100 µM		> 100 µM	> 100 µM	> 100 µM		> 100 µM	> 100 µM	> 100 µM	> 100 µM	> 100 µM	> 100 µM	> 100 µM	> 100 µM	> 100 µM	> 100 µM	> 100 µM	> 100 µM		
COc1cc(-c2cc(-c3nc4ccc(Cl)cc4[nH]3)[nH]n2)cc(OC)c1OC	30.2 µM	11.1 µM	4.82 µM	14 µM		10.6 µM	13.2 µM	14.3 µM	5.73 µM	16.3 µM	12.1 µM	2.02 µM	3.65 µM		3.6 µM	4.47 µM	3.42 µM	1.9 µM	2.8 µM	3.45 µM
C=C(C)[C@@H]1CC[C@]2(C)[C@H](CC[C@@H]3[C@H]4[C@H]5OC[C@@]4(CCC5(C)C)CC[C@]32C)[C@@]1(C)CCCN	3.1 µM	3 µM	7.86 µM	3.39 µM		3.33 µM	3.8 µM			3.36 µM	1.71 µM	2.79 µM	1.8 µM		1.81 µM		1.8 µM		1.62 µM	1.78 µM
Nc1ccn(C2CC(CO)C(O)C2O)c(=O)n1 (centres undefined)		> 57.7 µM	> 57.7 µM	> 57.7 µM	> 57.7 µM	> 57.7 µM	> 57.7 µM	> 57.7 µM	> 57.7 µM	> 57.7 µM										
CC1C=CC(=O)C(n2cc(F)c(=O)[nH]c2=O)O1 (centres undefined)		24.2 µM	48.7 µM	54.2 µM				61 µM		45.2 µM										
OCC12C3C4C1C1C2C3C41CO (centres undefined)	> 100 µM	> 100 µM	> 100 µM	> 100 µM			> 100 µM	> 100 µM		> 100 µM										
